Reference: ChEMBL document CHEMBL1126453, “Synthesis and anti-herpes activity of 5-trifluorovinyl-2-deoxyuridine” (1992)

Tests used:
[1] = Minimum antiviral concentration required to reduce virus-induced cytopathogenicity against HSV-1 (KOS) in E6SM cells; type: functional
[2] = Minimum antiviral concentration required to reduce virus-induced cytopathogenicity against HSV-2 (G) in E6SM cells; type: functional
[3] = Minimum antiviral concentration required to reduce virus-induced cytopathogenicity against TK' HSV-1 (VMW 1837) in E6SM cells; type: functional
[4] = Minimum antiviral concentration required to reduce virus-induced cytopathogenicity against TK-HSV-1 (B2006) in E6SM cells; type: functional
[5] = Minimum antiviral concentration required to reduce virus-induced cytopathogenicity against vaccinia virus in E6SM cells; type: functional
[6] = Minimum cytotoxic concentration required to cause alteration of normal E6SM cell culture morphology; type: functional; conditions: read-out: Min cytotoxic concentration
[7] = tested on: HEL; experiment: Minimum antiviral concentration required to reduce virus-induced cytopathogenicity against TK' VZV (07/1) in HEL cells; type: functional, Homo sapiens
[8] = tested on: HEL; experiment: Minimum antiviral concentration required to reduce virus-induced cytopathogenicity against TK' VZV (YS/R) in HEL cells; type: functional, Homo sapiens
[9] = tested on: HEL; experiment: Minimum antiviral concentration required to reduce virus-induced cytopathogenicity against VZV (OKA) in HEL cells; type: functional, Homo sapiens
[10] = tested on: HEL; experiment: Minimum antiviral concentration required to reduce virus-induced cytopathogenicity against VZV (YS) in HEL cells; type: functional, Homo sapiens
[11] = tested on: HEL; experiment: Minimum cytotoxic concentration required to cause alteration of normal human […] (HEL) morphology; type: functional; conditions: read-out: Min cytotoxic concentration
[12] = Minimum antiviral concentration required to reduce virus-induced cytopathogenicity against TK' HSV-1 (B2006) in E6SM cells; type: functional
[13] = Minimum antiviral concentration required to reduce virus-induced cytopathogenicity against Vaccinia virus in E6SM cells; type: functional
[14] = tested on: HEL; experiment: Minimum cytotoxic concentration required to cause alteration of normal human […] (HEL) morphology in HEL cells; type: functional; conditions: read-out: Min cytotoxic concentration

| Structure (SMILES) | Min antiviral concentration [1] | Min antiviral concentration [2] | Min antiviral concentration [3] | Min antiviral concentration [4] | Min antiviral concentration [5] | MCC [6] | Min antiviral concentration [7] | Min antiviral concentration [8] | Min antiviral concentration [9] | Min antiviral concentration [10] | MCC [11] | Min antiviral concentration [12] | Min antiviral concentration [13] | MCC [14] |
| --- | --- | --- | --- | --- | --- | --- | --- | --- | --- | --- | --- | --- | --- | --- |
| O=c1[nH]c(=O)n([C@H]2C[C@H](O)[C@@H](CO)O2)cc1C(F)=C(F)F | 0.05 µg/mL | 13 µg/mL | 1.5 µg/mL | 13 µg/mL | 8 µg/mL | 100 µg/mL | 13.6 µg/mL | 11.6 µg/mL | 0.16 µg/mL | 0.55 µg/mL | 10 µg/mL |  |  |  |
| O=c1[nH]c(=O)n([C@H]2C[C@H](O)[C@@H](CO)O2)cc1/C=C/Br [BRIVUDINE] | 0.02 µg/mL | 100 µg/mL | 40 µg/mL |  |  | 200 µg/mL | >10 µg/mL | >10 µg/mL | 0.002 µg/mL | 0.004 µg/mL |  | 100 µg/mL | 0.3 µg/mL | 200 µg/mL |
